Where two headings read alike, the source gives them in different places.
Key:
Southern armyworm [1] = experiment: Residual (7-day) contact activity, southern armyworm; type: in vivo, Spodoptera eridania [Cram.]; conditions: Spodoptera eridania, 168 h; for mortality at 625 ppm: read-out: Percent Kill, residual 7-day, AW, 625 PPM
Method: (§1) Initial Contact Activity: One half gram of test compound was dissolved in 40 ml of acetone and this solution was dispersed in 360 ml of water containing one drop of isooctylphenyl polyethoxyethanol. Aliquots of this solution, which corresponds to 1250 ppm of active ingredient, were diluted with an appropriate amount of water to provide solutions containing various concentrations of active ingredient. Test organisms and techniques were as follows: The activity against the Mexican bean beetle (Epilachna varivestis Muls.) and the southern armyworm (Spodoptera eridania [Cram.]) was evaluated by dipping the leaves of pinto bean plants into the test solution and infesting the leaves with the appropriate immature-form insects when the foiliage had dried; the activity against the pea aphid (Acyrthosiphon pisum [Harris]) was evaluated on broad bean plants whose leaves were dipped before infestation with adult aphids; the activity against two-sotted spider mites (Tetranychus urticae Koch) was evaluated on pinto bean plants whose leaves were dipped after infestation with adult mites; the activity against the milkweed bug (Oncopeltus fasciatus [Dallas]), and the plum curculio (Conotrachelus nenuphar [Herbst]) was evaluated by spraying the test solutions into glass dishes or jars containing the adult insects; the activity against the confused flour beetle (Tribolium confusum duVal) was evaluated by introducing the insects into glass dishes which had been previously sprayed with test solution and allowed to dry. All organisms in the test were maintained in a holding room at 80° F and 50% relative humidity for an exposure period of 48 hours. At the end of this time, the dead and living insects or mites were counted, and the percent kill was calculated.
(§2) Residual Contact Activity: The residual contact activity of the compounds was determined on the same organisms using the techniques described above, except that in each case the treated surface was allowed to dry and was exposed to normal light and air for seven days before introduction of the mites or insects.

Southern armyworm [2] = experiment: Initial contact activity, leaf dip, southern armyworm; type: in vivo, Spodoptera eridania [Cram.]; conditions: for mortality at 156 ppm / mortality at 312 ppm / mortality at 625 ppm / mortality at 1250 ppm: Spodoptera eridania, foliar, 48 h
Method: as §1

rats = experiment: Toxicity to rats, acute oral median lethal dose (LD50), Method A; type: in vivo, young female albino rats, derived from Sprague-Dawley stock; conditions: rat; for Enhancement LD50 Derivative/LD50 Aldicarb: ratio to aldicarb
Method: (§3) Method A: Young female albino rats, derived from Sprague-Dawley stock and weighing between 175 and 200 g, were used. An initial screening was conducted to determine the general level of toxicity of the test compounds and to establish the dosing range to be used with each compound. The test materials were suspended in corn oil and administered directly into the stomachs of the rats, using a hypodermic syringe equipped with a ball-tipped intubating needle. A range of dosing levels was employed utilizing two rats at each level. […] This method was used to determine the toxicity to rats of the compounds of Examples I, II, and III and aldicarb.

[3] = as above; type: in vivo, young female albino rats, derived from Sprague-Dawley stock; conditions: in vivo, rat, corn oil, 14 days observation
Method: as §3

Milkweed bug = experiment: Residual (7-day) contact activity, milkweed bug; type: in vivo, Oncopeltus fasciatus [Dallas]; conditions: for mortality at 156 ppm / mortality at 312 ppm / mortality at 1250 ppm / mortality at 625 ppm: Oncopeltus fasciatus, 168 h; for mortality at 625 ppm: read-out: Percent Kill, residual 7-day, MWB, 625 PPM
Method: as §1, §2

Two-spotted spider mite = experiment: Residual (7-day) contact activity, two-spotted spider mite; type: in vivo, Tetranychus urticae Koch
Method: as §1, §2

insects and mites = experiment: Systemic activity (soil-watering), insects and mites in general; type: in vivo; conditions: in words
Method: Systemic Activity: Systemic activity was measured using a soil-watering technique. Test organisms were Mexican bean beetle, southern armyworm, pea aphid, and mites on plants as described above in this Example. With appropriate precautions to avoid contact of the solution with the test plant surfaces, 25 ml of a test solution, prepared as above to contain the desired amount of active ingredient, were poured evenly over the surface of the soil in which the plant was growing. The treated plants were maintained under normal growing conditions for three days to permit translocation of the toxicant, after which the leaves were infested. Two days after infestation, counts of living and dead insects were made.

[4] = residual 7-day, AW, 312 PPM, read-out: Percent Kill
[5] = residual 7-day, AW, read-out: Percent Kill
[6] = initial, AW, 156 PPM, 48 hours, read-out: Percent Kill
[7] = initial, AW, 312 PPM, 48 hours, read-out: Percent Kill
[8] = initial, AW, 625 PPM, 48 hours, read-out: Percent Kill
[9] = initial, AW, 48 hours, read-out: Percent Kill
[10] = residual 7-day, MWB, 156 PPM, read-out: Percent Kill
[11] = residual 7-day, MWB, 312 PPM, read-out: Percent Kill
[12] = residual 7-day, MWB, 1250 PPM, read-out: Percent Kill
[13] = Tetranychus urticae, 168 h, residual 7-day, SM, 156 PPM, read-out: Percent Kill
[14] = Tetranychus urticae, 168 h, residual 7-day, SM, 312 PPM, read-out: Percent Kill
[15] = Tetranychus urticae, 168 h, residual 7-day, SM, 1250 PPM, read-out: Percent Kill

SMILES	mortality at 312 ppm (Southern armyworm [1]; [4])	mortality at 1250 ppm (Southern armyworm [1]; [5])	mortality at 156 ppm (Southern armyworm [2]; [6])	mortality at 312 ppm (Southern armyworm [2]; [7])	mortality at 625 ppm (Southern armyworm [2]; [8])	mortality at 1250 ppm (Southern armyworm [2]; [9])	LD50 relative to that of aldicarb (rats)	Enhancement LD50 Derivative/LD50 Aldicarb (rats)	LD50 at 336 h [3]	mortality at 156 ppm (Milkweed bug; [10])	mortality at 312 ppm (Milkweed bug; [11])	mortality at 1250 ppm (Milkweed bug; [12])	mortality at 156 ppm (Two-spotted spider mite; [13])	mortality at 312 ppm (Two-spotted spider mite; [14])	mortality at 1250 ppm (Two-spotted spider mite; [15])	mortality at 625 ppm (Southern armyworm [1])	mortality at 625 ppm (Milkweed bug)	also measured
CCCCN(CCCC)SN(C)C(=O)ON=CC(C)(C)SC [Example III, 2-methyl-2-(methylthio)propanal O-[(dibutylaminosulfenyl)(methyl)carbamoyl]oxime]	0%	0%	0%	0%	0%	20%	25 times	25	12.5 mg/kg	20%	70%	100%	18%	45%	100%			
CSC(C)(C)C=NOC(=O)N(C)SN1CCOCC1 [Example II, 2-methyl-2-(methylthio)propanol O-[(N-methyl-N-morpholinosulfenyl)carbamoyl]oxime]	64%	55%	0%	0%	70%	100%	2.4 times	2.4	1.2 mg/kg	100%	100%	100%	76%	93%	97%			
CNC(=O)ON=CC(C)(C)SC [Aldicarb, 2-methyl-2-(methylthio)propanal O-(methylcarbamoyl)oxime]									0.5 mg/kg							0%	100%	mortality at 312 ppm (Southern armyworm [1]; read-out: Percent Kill, residual 7-day, AW, 312 PPM): 0%; mortality at 156 ppm (Southern armyworm [2]; read-out: Percent Kill, initial, AW, 156 PPM, 48 hours): 23%; mortality at 312 ppm (Southern armyworm [2]; read-out: Percent Kill, initial, AW, 312 PPM, 48 hours): 0%; mortality at 625 ppm (Southern armyworm [2]; read-out: Percent Kill, initial, AW, 625 PPM, 48 hours): 12%; Percent Kill (Southern armyworm [2]; initial, AW, 312 PPM, 48 hours): 0%; Percent Kill (Southern armyworm [2]; initial, AW, 625 PPM, 48 hours, 2880 min): 15%; mortality at 156 ppm (Milkweed bug; read-out: Percent Kill, residual 7-day, MWB, 156 PPM): 15%; mortality at 312 ppm (Milkweed bug; read-out: Percent Kill, residual 7-day, MWB, 312 PPM): 80%; mortality at 1250 ppm (Milkweed bug; read-out: Percent Kill, residual 7-day, MWB, 1250 PPM): 100%; Percent Kill (Milkweed bug; residual 7-day, MWB, 312 PPM): 70%; Percent Kill (Milkweed bug; residual 7-day, MWB, 1250 PPM): 100%; mortality at 39 ppm (Two-spotted spider mite; Tetranychus urticae, 168 h, read-out: Percent Kill, residual 7-day, SM, 39 PPM): 17%; mortality at 156 ppm (Two-spotted spider mite; Tetranychus urticae, 168 h, read-out: Percent Kill, residual 7-day, SM, 156 PPM): 91.5%; mortality at 312 ppm (Two-spotted spider mite; Tetranychus urticae, 168 h, read-out: Percent Kill, residual 7-day, SM, 312 PPM): 97%; mortality at 1250 ppm (Two-spotted spider mite; Tetranychus urticae, 168 h, read-out: Percent Kill, residual 7-day, SM, 1250 PPM): 98.6%; Percent Kill (Two-spotted spider mite; residual 7-day, SM, 156 PPM): 90%
CSC(C)(C)C=NOC(=O)N(C)SN(C)C [Example IV, 2-Methyl-2-(methylthio)propanal O-[(dimethylaminosulfenyl)-(methyl)carbamoyl]oxime]		20%	0%	0%	0%	12%					65%	100%	52%		100%	0%	100%	mortality at 625 ppm (Two-spotted spider mite; Tetranychus urticae, 168 h, read-out: Percent Kill, residual 7-day, SM, 625 PPM): 0%; mortality at 39 ppm (Two-spotted spider mite; Tetranychus urticae, 168 h, residual 7-day, SM, 39 PPM, read-out: Percent Kill): 18%; systemic activity compared with aldicarb (insects and mites): substantially the same as aldicarb
CSC(C)(C)C=NOC(=O)N(C)SN(C)Cc1ccccc1 [Example I, 2-methyl-2-(methylthio)propanol O-[(N-benzyl-N-methylaminosulfenyl)(methyl)carbamoyl]oxime]	0%	91%	0%	24%	25%	33%	19 times	19	9.4 mg/kg	90%	95%	100%	3.2%	63%	99.5%			

From US4108991A, “N-aminosulfenyl derivatives of aldicarb” (priority 1976, dated 1978)
